This test addresses T1, TAS1R2/TAS1R3 sweet taste receptor (Homo sapiens, UniProt Q7RTX0+Q8TE23).
T1 construct: with TAS1R3
T1 sequence (Q8TE23 20-839): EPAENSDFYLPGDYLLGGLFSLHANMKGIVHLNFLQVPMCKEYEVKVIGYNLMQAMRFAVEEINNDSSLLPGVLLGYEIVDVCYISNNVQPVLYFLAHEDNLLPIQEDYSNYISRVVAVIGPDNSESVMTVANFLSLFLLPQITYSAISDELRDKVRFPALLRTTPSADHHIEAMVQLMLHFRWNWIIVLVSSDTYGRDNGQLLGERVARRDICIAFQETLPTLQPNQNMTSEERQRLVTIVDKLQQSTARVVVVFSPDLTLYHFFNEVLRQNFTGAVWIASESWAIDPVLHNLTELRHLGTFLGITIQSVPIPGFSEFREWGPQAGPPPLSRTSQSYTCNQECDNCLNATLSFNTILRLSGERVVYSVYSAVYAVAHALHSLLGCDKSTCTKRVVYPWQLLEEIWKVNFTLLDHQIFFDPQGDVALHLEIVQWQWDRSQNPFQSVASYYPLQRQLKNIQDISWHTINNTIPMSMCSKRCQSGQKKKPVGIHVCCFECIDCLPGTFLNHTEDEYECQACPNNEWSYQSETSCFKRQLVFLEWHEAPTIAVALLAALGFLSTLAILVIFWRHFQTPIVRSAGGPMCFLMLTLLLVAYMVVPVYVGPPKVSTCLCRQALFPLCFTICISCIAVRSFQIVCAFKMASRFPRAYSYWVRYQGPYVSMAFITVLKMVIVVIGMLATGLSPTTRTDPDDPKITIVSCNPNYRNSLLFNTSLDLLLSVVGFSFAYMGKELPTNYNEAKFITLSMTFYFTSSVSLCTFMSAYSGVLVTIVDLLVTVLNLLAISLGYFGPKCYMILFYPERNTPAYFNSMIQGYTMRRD
T1 sequence (Q7RTX0 21-852): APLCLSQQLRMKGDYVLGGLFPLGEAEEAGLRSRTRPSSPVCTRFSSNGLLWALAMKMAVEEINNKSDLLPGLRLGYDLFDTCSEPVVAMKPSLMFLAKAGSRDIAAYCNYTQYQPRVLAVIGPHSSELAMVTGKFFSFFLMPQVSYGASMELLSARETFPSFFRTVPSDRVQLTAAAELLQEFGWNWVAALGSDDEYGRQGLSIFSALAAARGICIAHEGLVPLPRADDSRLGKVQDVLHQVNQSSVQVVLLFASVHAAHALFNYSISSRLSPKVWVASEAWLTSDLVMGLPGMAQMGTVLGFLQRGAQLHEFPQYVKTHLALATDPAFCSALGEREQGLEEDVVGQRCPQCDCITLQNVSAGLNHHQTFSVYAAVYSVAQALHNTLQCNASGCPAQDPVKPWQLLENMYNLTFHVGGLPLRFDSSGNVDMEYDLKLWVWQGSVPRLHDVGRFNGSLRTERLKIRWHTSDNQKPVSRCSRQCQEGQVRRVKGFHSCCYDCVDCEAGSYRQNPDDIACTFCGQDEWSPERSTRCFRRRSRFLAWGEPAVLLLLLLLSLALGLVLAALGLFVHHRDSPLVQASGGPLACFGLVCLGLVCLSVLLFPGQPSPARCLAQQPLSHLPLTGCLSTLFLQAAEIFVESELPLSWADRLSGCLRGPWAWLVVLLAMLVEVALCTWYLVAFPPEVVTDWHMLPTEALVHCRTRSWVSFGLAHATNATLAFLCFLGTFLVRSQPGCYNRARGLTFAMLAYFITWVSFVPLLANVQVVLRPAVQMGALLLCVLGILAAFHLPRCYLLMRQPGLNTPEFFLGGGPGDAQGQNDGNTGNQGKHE
Description: GCaMP6S calcium imaging in HEK293T-Gα[…]gust44 cells expressing TAS1R2/TAS1R3, mock-corrected. Type of test: cell-based.

Each structure is given as a SMILES string. Read-outs that look alike come from different tables or passages of the source.

By EC50 is commonly meant the concentration that produces a half-maximal response. Regarding `C[C@]1(CO)CC(=O)[C@]2(C)CC[C@]3(C)C(=CCC4[C@@]5(C)CC[C@H](OC6O[C@H](C(=O)O)[C@@H](O)[C@H](O)[C@H]6O[C@@H]6OC[C@@H](O)[C@H](O)[C@H]6O)[C@](C)(CO)C5CC[C@]43C)C2C1` (stereo partly drawn) [compound 2, 3-O-β-D-xylopyranosyl-(1→2)-β-D-glucuronopyranosylwistariasapogenol A], the EC50 was 35.9 µM.
The same measure, in the same setting: in the case of `C[C@@H]1O[C@@H](O[C@H]2[C@H](O[C@H]3C(O[C@H]4CC[C@@]5(C)C(CC[C@]6(C)C5CC=C5C7C[C@@](C)(CO)CC(=O)[C@]7(C)CC[C@]56C)[C@@]4(C)CO)O[C@H](C(=O)O)[C@@H](O)[C@@H]3O)OC[C@@H](O)[C@@H]2O)[C@H](O)[C@H](O)[C@H]1O` (stereo partly drawn) [compound 3, 3-O-α-L-rhamnopyranosyl-(1→2)-β-D-xylopyranosyl-(1→2)-β-D-glucuronopyranosywistariasapogenol A] it was 31.3 µM.
Still for that read-out and setting: the result for `CC1(C)[C@@H](O[C@H]2O[C@H](C(=O)O)[C@@H](O)[C@H](O)[C@H]2O[C@@H]2O[C@H](C(=O)O)[C@@H](O)[C@H](O)[C@H]2O)CC[C@]2(C)[C@H]3C(=O)C=C4[C@@H]5C[C@@](C)(C(=O)O)CC[C@]5(C)CC[C@@]4(C)[C@]3(C)CC[C@@H]12` [glycyrrhizin] reads 41.3 µM.
On to `OC[C@H]1O[C@H](O[C@]2(CCl)O[C@H](CCl)[C@@H](O)[C@@H]2O)[C@H](O)[C@@H](O)[C@H]1Cl` [sucralose, reference compound], for which, under “read-out: EC50 (converted)”, the EC50 is 40.2 µM.
